Data on one compound can be found in patent publication US7157580B2, “Aminopyrimidine and aminopyridine anti-inflammation agents” (Roche Palo Alto LLC, priority 2001, dated 2007).

For the compound `Cn1cncc1-c1cc(/C=N/N(CCC(C)(C)O)C(N)=S)nc(NC2CCN(S(C)(=O)=O)CC2)n1` [Compound 96, 2-(1-methanesulfonyl-piperidin-4-ylamino)-6-(1-methyl-1H-imidazol-5-yl)-pyrimidine-4-carbaldehyde 2-(2-hydroxy-2-methyl-but-4-yl)-thiosemicarbazone], the melting point fell in the range of 203.6 to 206 °C.
